Each block holds one compound with its values, some of them ahead of it. The source made the active and inactive calls. The rule behind the calls is not given here.
Key:
[1] = Antiproliferative activity against human HCT15 cells measured after 72 hrs by CCK8 assay; assay type: functional, cell-based; conditions: HCT-15, 72 h
[2] = molecular target: T1, DNA topoisomerase 1 (Homo sapiens) (UniProt P11387); experiment: Inhibition of human topoisomerase-1 assessed as inhibition of relaxation of supercoiled pBR322 plasmid DNA at 100 uM measured after 1 hr by ethidium bromide staining based agarose gel electrophoresis relative to control
T1 sequence (whole entry): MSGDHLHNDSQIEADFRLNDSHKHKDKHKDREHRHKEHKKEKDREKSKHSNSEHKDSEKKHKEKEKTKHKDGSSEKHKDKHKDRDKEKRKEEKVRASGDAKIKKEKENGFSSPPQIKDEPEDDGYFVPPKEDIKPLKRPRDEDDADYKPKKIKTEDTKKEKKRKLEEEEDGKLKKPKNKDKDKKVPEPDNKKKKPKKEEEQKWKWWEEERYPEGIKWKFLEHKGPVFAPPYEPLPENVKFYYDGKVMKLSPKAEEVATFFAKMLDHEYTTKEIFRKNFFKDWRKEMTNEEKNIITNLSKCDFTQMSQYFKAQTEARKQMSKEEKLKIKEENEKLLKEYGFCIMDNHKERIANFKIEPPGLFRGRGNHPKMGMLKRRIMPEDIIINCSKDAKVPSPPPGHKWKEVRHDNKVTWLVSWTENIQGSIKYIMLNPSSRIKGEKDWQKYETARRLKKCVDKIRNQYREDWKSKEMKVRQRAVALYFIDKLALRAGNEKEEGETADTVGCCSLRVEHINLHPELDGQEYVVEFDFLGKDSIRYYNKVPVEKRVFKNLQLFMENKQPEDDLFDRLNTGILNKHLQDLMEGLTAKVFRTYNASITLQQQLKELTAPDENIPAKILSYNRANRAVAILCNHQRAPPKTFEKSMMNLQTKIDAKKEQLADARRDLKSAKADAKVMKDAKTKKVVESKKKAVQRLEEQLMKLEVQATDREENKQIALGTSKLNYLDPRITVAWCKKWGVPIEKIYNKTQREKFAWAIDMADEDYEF

[3] = Antiproliferative activity against human DU145 cells measured after 72 hrs by CCK8 assay; assay type: functional, cell-based; conditions: DU-145, 72 h
[4] = Antiproliferative activity against human MCF7 cells measured after 72 hrs by CCK8 assay; assay type: functional, cell-based; conditions: MCF7, 72 h
[5] = molecular target: DNA topoisomerase 2-alpha (Homo sapiens) (UniProt P11388); experiment: Inhibition of human topoisomerase-2 alpha assessed as inhibition of relaxation of supercoiled pBR322 plasmid DNA at 20 uM measured after 1 hr by ethidium bromide staining based agarose gel electrophoresis relative to control
[6] = Antiproliferative activity against human T47D cells measured after 72 hrs by CCK8 assay; assay type: functional, cell-based
[7] = molecular target: DNA topoisomerase 2-alpha (Homo sapiens) (UniProt P11388); experiment: Inhibition of human topoisomerase-2 alpha assessed as inhibition of relaxation of supercoiled pBR322 plasmid DNA at 100 uM measured after 1 hr by ethidium bromide staining based agarose gel electrophoresis relative to control
Bos taurus = organism: Bos taurus; experiment: Displacement of ethidium bromide from calf thymus DNA measured after 30 mins by fluorescence quenching assay
[8] = Cell cycle arrest in human T47D cells assessed as accumulation at G1 phase at 10 uM after 24 hrs by DAPI staining-based cell analyzer (reference value: 51%); assay type: functional
[9] = Cell cycle arrest in human T47D cells assessed as accumulation at G1 phase at 10 uM after 5 hrs by DAPI staining-based cell analyzer (reference value: 47 to 50%); assay type: functional
[10] = molecular target: DNA topoisomerase 2-alpha (Homo sapiens) (UniProt P11388); experiment: Poison activity at topoisomerase-2 alpha in human T47D cells assessed as DNA damage by measuring DNA tail length at 5 uM measured after 24 hrs by alkaline comet assay; assay type: cell-based
T47D [11] = experiment: Induction of apoptosis in human T47D cells assessed as increase in cleaved PARP level measured after 24 hrs by Western blot analysis; assay type: functional, cell-based
[12] = Cell cycle arrest in human T47D cells assessed as increase in p27kip1 level measured after 24 hrs; assay type: functional, cell-based
[13] = Cell cycle arrest in human T47D cells assessed as accumulation at G2/M phase at 10 uM after 5 hrs by DAPI staining-based cell analyzer (reference value: 18 to 20%); assay type: functional
[14] = Cell cycle arrest in human T47D cells assessed as accumulation at G1 phase at 10 uM after 20 hrs by DAPI staining-based cell analyzer (reference value: 47 to 50%); assay type: functional
[15] = Cell cycle arrest in human T47D cells assessed as accumulation at S phase at 10 uM after 15 hrs by DAPI staining-based cell analyzer (reference value: 22%); assay type: functional
T47D [16] = experiment: Induction of apoptosis in human T47D cells assessed as increase in bax level measured after 24 hrs by Western blot analysis; assay type: functional, cell-based
[17] = Cell cycle arrest in human T47D cells assessed as accumulation at S phase at 10 uM after 24 hrs by DAPI staining-based cell analyzer (reference value: 26%); assay type: functional
T47D [18] = experiment: Induction of apoptosis in human T47D cells assessed as decrease in bcl-2 level measured after 24 hrs by Western blot analysis; assay type: functional, cell-based
[19] = Cell cycle arrest in human T47D cells assessed as accumulation at S phase at 3 uM after 24 hrs by DAPI staining-based cell analyzer (reference value: 26%); assay type: functional
[20] = Cell cycle arrest in human T47D cells assessed as accumulation at S phase at 10 uM after 5 hrs by DAPI staining-based cell analyzer (reference value: 22%); assay type: functional
[21] = Cell cycle arrest in human T47D cells assessed as accumulation at G2/M phase at 10 uM after 15 hrs by DAPI staining-based cell analyzer (reference value: 18 to 20%); assay type: functional
[22] = molecular target: DNA topoisomerase 2-alpha (Homo sapiens) (UniProt P11388); experiment: Poison activity at topoisomerase-2 alpha in human T47D cells assessed as DNA damage by measuring DNA tail length at 10 uM measured after 24 hrs by alkaline comet assay; assay type: cell-based
[23] = Cell cycle arrest in human T47D cells assessed as accumulation at G2/M phase at 10 uM after 10 hrs by DAPI staining-based cell analyzer (reference value: 18 to 20%); assay type: functional
[24] = Cell cycle arrest in human T47D cells assessed as accumulation at S phase at 1 uM after 24 hrs by DAPI staining-based cell analyzer (reference value: 26%); assay type: functional
[25] = molecular target: DNA topoisomerase 2-alpha (Homo sapiens) (UniProt P11388); experiment: Inhibition of topoisomerase-2 alpha catalytic activity in human T47D cells assessed as appearance of free protein band at 50 uM measured after 2 hrs by Western blot analysis; assay type: cell-based
[26] = Cell cycle arrest in human T47D cells assessed as accumulation at G1 phase at 10 uM by DAPI staining based cell analyzer; assay type: functional; conditions: TDE = time-dependent effect
[27] = Cell cycle arrest in human T47D cells assessed as accumulation at G2/M phase at 3 uM after 24 hrs by DAPI staining-based cell analyzer (reference value: 15%); assay type: functional
[28] = Cell cycle arrest in human T47D cells assessed as decrease in cyclin D1 level at 10 uM; assay type: functional, cell-based; conditions: TDE = time-dependent effect
[29] = Cell cycle arrest in human T47D cells assessed as accumulation at G1 phase at 10 uM after 10 hrs by DAPI staining-based cell analyzer (reference value: 47 to 50%); assay type: functional
[30] = molecular target: T1, DNA topoisomerase 1 (Homo sapiens); experiment: Inhibition of human topoisomerase-1 assessed as inhibition of relaxation of supercoiled pBR322 plasmid DNA at 20 uM measured after 1 hr by ethidium bromide staining based agarose gel electrophoresis relative to control
[31] = Cell cycle arrest in human T47D cells assessed as accumulation at S phase at 10 uM after 20 hrs by DAPI staining-based cell analyzer (reference value: 22%); assay type: functional
[32] = Cell cycle arrest in human T47D cells assessed as decrease in cyclin D1 level measured after 24 hrs; assay type: functional, cell-based
[33] = Cell cycle arrest in human T47D cells assessed as accumulation at G2/M phase at 1 uM after 24 hrs by DAPI staining-based cell analyzer (reference value: 15%); assay type: functional
[34] = Cell cycle arrest in human T47D cells assessed as accumulation at G1 phase at 1 uM after 24 hrs by DAPI staining-based cell analyzer (reference value: 51%); assay type: functional
[35] = Cell cycle arrest in human T47D cells assessed as accumulation at G2/M phase at 10 uM after 20 hrs by DAPI staining-based cell analyzer (reference value: 18 to 20%); assay type: functional
[36] = Cell cycle arrest in human T47D cells assessed as accumulation at S phase at 10 uM after 10 hrs by DAPI staining-based cell analyzer (reference value: 22%); assay type: functional
[37] = Cell cycle arrest in human T47D cells assessed as accumulation at G1 phase at 3 uM after 24 hrs by DAPI staining-based cell analyzer (reference value: 51%); assay type: functional
[38] = Cell cycle arrest in human T47D cells assessed as increase in p27kip1 level at 10 uM; assay type: functional, cell-based; conditions: TDE = time-dependent effect
[39] = Cell cycle arrest in human T47D cells assessed as accumulation at G1 phase at 10 uM after 15 hrs by DAPI staining-based cell analyzer (reference value: 47 to 50%); assay type: functional
[40] = Cell cycle arrest in human T47D cells assessed as accumulation at G2/M phase at 10 uM after 24 hrs by DAPI staining-based cell analyzer (reference value: 15%); assay type: functional

DNA topoisomerase 2-alpha (Homo sapiens), sequence (P11388 whole entry): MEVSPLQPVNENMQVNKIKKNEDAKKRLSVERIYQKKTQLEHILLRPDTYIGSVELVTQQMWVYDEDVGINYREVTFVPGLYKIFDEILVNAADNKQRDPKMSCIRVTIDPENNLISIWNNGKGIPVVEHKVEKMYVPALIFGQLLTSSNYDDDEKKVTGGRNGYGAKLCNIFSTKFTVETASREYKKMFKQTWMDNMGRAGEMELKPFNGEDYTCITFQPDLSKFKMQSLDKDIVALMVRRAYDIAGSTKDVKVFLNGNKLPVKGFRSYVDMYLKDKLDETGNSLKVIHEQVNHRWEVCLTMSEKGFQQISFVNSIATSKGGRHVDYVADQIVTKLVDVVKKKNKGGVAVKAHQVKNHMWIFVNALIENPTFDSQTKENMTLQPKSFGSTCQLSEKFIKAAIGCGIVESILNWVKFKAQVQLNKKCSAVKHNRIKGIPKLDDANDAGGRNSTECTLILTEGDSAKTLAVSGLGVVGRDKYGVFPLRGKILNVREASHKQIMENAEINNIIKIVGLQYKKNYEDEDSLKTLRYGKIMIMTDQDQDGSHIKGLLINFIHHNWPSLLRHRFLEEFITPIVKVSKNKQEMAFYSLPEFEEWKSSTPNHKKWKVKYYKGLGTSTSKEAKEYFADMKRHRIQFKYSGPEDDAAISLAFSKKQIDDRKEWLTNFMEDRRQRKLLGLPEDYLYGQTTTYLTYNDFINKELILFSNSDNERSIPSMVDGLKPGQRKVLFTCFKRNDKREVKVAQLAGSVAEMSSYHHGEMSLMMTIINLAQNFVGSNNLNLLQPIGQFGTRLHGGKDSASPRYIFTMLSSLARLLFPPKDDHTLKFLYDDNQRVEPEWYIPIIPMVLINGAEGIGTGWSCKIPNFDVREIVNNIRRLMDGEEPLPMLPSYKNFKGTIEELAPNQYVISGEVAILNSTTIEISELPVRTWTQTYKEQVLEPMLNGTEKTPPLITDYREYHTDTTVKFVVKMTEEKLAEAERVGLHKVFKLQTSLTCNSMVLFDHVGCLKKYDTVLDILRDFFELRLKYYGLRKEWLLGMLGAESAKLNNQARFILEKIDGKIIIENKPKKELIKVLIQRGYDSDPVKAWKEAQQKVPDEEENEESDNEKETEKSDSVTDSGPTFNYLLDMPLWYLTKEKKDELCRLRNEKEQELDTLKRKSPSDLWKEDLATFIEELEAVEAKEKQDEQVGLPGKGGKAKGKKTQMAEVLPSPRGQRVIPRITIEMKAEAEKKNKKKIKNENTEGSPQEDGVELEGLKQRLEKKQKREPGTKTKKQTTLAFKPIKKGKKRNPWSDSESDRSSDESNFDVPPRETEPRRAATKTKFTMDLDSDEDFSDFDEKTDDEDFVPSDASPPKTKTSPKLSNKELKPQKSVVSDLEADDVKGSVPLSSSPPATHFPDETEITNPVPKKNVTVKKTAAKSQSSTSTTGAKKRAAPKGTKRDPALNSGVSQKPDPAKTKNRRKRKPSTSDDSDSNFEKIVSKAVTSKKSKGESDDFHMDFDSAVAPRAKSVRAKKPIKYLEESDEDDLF

SMILES: CCOc1ccc2c(c1)Oc1cc(O)ccc1C21c2ccccc2C(=O)N1/N=C/c1ccc(Cl)cc1 (stereo not drawn)
IC50 [1]: 2.19 µM
inhibition [2]: 22.7%
IC50 [3]: 2.3 µM
IC50 [4]: 9.77 µM
inhibition [5]: 1.3%
IC50 [6]: 5.74 µM
inhibition [7]: 81.6%

SMILES: COc1cc(NS(C)(=O)=O)ccc1Nc1c2ccccc2nc2ccccc12
inhibition (Bos taurus): Dose-dependent effect

SMILES: CCOc1ccc2c(c1)Oc1cc(O)ccc1C21c2ccccc2C(=O)N1/N=C/c1ccccc1O (stereo not drawn)
Activity [8]: 60%
IC50 [1]: 1.84 µM
Activity [9]: 51%
Activity [10]: 7.76 pixel
Activity (T47D [11]): Dose-dependent effect
Activity [12]: Dose-dependent effect
Activity [13]: 14%
Activity [14]: 62%
Activity [15]: 21%
Activity (T47D [16]): Dose-dependent effect
Activity [17]: 22%
Activity (T47D [18]): Dose-dependent effect
Activity [19]: 25%
Activity [20]: 21%
Activity [21]: 10%
Activity [22]: 8.56 pixel
inhibition [2]: 39.5%
IC50 [3]: 0.55 µM
IC50 [4]: 4.74 µM
Activity [23]: 13%
Activity [24]: 28%
inhibition [25]: Active
inhibition [5]: 1.9%
Activity [26]: Tde
IC50 [6]: 0.43 µM
Activity [27]: 11%
Activity [28]: Tde
Activity [29]: 55%
inhibition [30]: 28.1%
Activity [31]: 20%
Activity [32]: Dose-dependent effect
Activity [33]: 14%
inhibition [7]: 78.7%
Activity [34]: 54%
Activity [35]: 10%
Activity [36]: 22%
Activity [37]: 59%
Activity [38]: Tde
Activity [39]: 57%
Activity [40]: 11%

More lines, main results first:

inhibition [2]: 12.3%
inhibition [5]: 2.3%
inhibition [7]: 80%
SMILES: CCOc1ccc2c(c1)Oc1cc(O)ccc1C21c2ccccc2C(=O)N1/N=C/c1ccc(Cl)cc1Cl (stereo not drawn)
IC50 [1]: 3.17 µM
IC50 [3]: > 50 µM
IC50 [4]: 23.2 µM
IC50 [6]: > 50 µM

inhibition [2]: 98%
inhibition [5]: 2.9%
inhibition [30]: 77%
inhibition [7]: 83.8%
SMILES: CCOc1ccc2c(c1)Oc1cc(OC(=O)c3ccccc3[N+](=O)[O-])ccc1C21c2ccccc2C(=O)N1/N=C/c1ccc(Cl)cc1Cl (stereo not drawn)
IC50 [1]: 6.25 µM
IC50 [3]: 6.74 µM
IC50 [4]: > 50 µM
IC50 [6]: > 50 µM

Reference: ChEMBL document CHEMBL3877252, “Fluorescein hydrazones: A series of novel non-intercalative topoisomerase IIα catalytic inhibitors induce G1 arrest and apoptosis in breast and colon cancer cells” (Eur J Med Chem, 2017)
